Measurements reported in patent publication US20070020193A1, “Dronabinol compositions and methods for using same” (priority 2005, published 2007).
Marks after values point to notes of the source that are not given here.

Columns and labels:
[1] = Example 2 multiple rising dose inhaled delta-9-THC study: plasma pharmacokinetics; details: for AUC(0-t) / AUC(0-inf) / Cmax / half-life / Tmax: human, plasma; for AUC(0-t): AUC(0-8)
Description: A randomized, double-blind, placebo-controlled, multiple rising dose safety, tolerability, pharmacokinetic and pharmacodynamic study to assess two dose levels of inhaled delta-9-THC was conducted. Dose levels were studied in ascending order. Two consecutive groups (n=9/group) of healthy subjects were studied (Groups I and II). […] There was a lapse of at least 10 days between the groups for interim safety and pharmacokinetic analysis. Two dose levels were studied in ascending order. […] Subjects in each treatment Group (I or II) received single and multiple doses of inhaled delta-9-THC according to the following schedule:
For both dose levels, the first and the last dose of study drug was given under fasted conditions. Subjects were confined to the study site from the evening of Day −2 (Day 1 is the day of administration of the first dose of study drug) until the 120-hour blood sample following the final dose of study drug, resulting in an 18-day confinement period for subjects in Group I and a 25-day confinement period for Group II. Between the completion of Group I and the start of Group II, an interim safety and pharmacokinetic analysis was performed. Based on the results of the interim analyses, the dose level for investigation in Group II was determined.
Two MDI dosage strengths were used corresponding to the same formulations used in Example 1: one delivering 0.3 mg delta-9-THC (or placebo) per actuation and one delivering 1.2 mg delta-9-THC (or placebo) per actuation. The MDI consisted of a pressurized (via propellants) container and a metered-dose valve. The propellants provided the necessary force to expel the drug, and also acted as a solvent and diluent. The canister unit was provided within a mouthpiece (oral adapter), to expel an exact amount of drug, in the proper particle size distribution, upon each actuation. Two basic formulations containing 0.3 and 1.2 mg of delta-9-THC per 50 μL were developed with propellant 1,1,1,2 tetrafluoroethane 134a (HFA 134a), and ethanol as solvent. The formulations were made in accordance with the composition used in Example 1.
Whole blood samples were collected according to the assessment flowchart in EDTA tubes through venepuncture or indwelling catheter. Samples were immediately placed on ice and subsequently centrifuged within 30 minutes at 1,500 g for 10 minutes. Plasma was transferred into a 5 ml screw cap polypropylene tube, stoppered and stored at below minus 20° C. until transfer to the analytical laboratory for analysis. […] The measurement ranges were 0.05-30 ng/ml for delta-9-THC, 0.04-30 ng/ml for 11-OH-THC, and 0.25-10 ng/ml for THC-COOH.
For Example 2: The statistical analysis encompassed an exploratory analysis of the single and multiple dose pharmacokinetics and dose proportionality of two dose levels of inhaled delta-9-THC in healthy subjects. Descriptive statistics included number of subjects, mean, standard deviation, coefficient of variation (%) and geometric mean for all pharmacokinetic parameters.
The exploratory analysis was performed on the logarithms of the dose-normalized pharmacokinetic parameters AUC(0-inf), AUC(0-t), AUC(0-τ) and Cmax. Dose proportionality was tested both at single dose and at multiple dose (steady state) by comparing the dose groups for all pharmacokinetic parameters by an analysis of variance with dose as fixed effect.
Dose proportionality was tested by the contrast between the dose groups. For this contrast on the logarithmic scale, p-values were given. After anti-logarithmic transformation, the resultant ratios of geometric means and 90% confidence intervals were given.
Accumulation was tested by comparing the steady state values for AUC(0-τ) with the single dose values for AUC(0-τ) by a mixed model analysis of variance with dose and day (with levels single dose and steady state) as fixed effects and subject within dose as random effect.

healthy subjects = assay: Example 2: pulmonary function tests; format: in vivo, human
Description: Adverse events were recorded based on original descriptions from subject responses to queries. Complete medical histories and physical examinations were conducted. Vital signs were monitored, ECGs were recorded along with pulmonary function tests and laboratory examinations.
Listings of values for each subject were presented with abnormal or out of range values for vital signs, laboratory assays, ECGs, pulmonary function tests, and physical examinations. Descriptive statistics (n, mean, standard deviation (SD), minimum, median, maximum) for all clinical laboratory safety parameters, ECGs, pulmonary function tests, and vital signs were provided. ECGs and physical examinations were to be summarized in shift tables to show changes from baseline between normal and abnormal findings.

[2] = oral administration, first-pass metabolism; cited from earlier work
[3] = inhaled, 1.2 mg, Arithmetic Mean (SD), 1.2 mg m.d., Day 12, Group I
[4] = inhaled, 1.2 mg, Arithmetic Mean (SD), 1.2 mg s.d., Day 1
[5] = inhaled, 1.2 mg, Geometric Mean (Range), 1.2 mg s.d., Day 1
[6] = inhaled, 3.6 mg, Arithmetic Mean (SD), 3.6 mg m.d., Day 19, Group II
[7] = inhaled, 3.6 mg, Arithmetic Mean (SD), 3.6 mg s.d., Day 1
[8] = inhaled, 3.6 mg, Geometric Mean (Range), 3.6 mg s.d., Day 1

Question: Which “achievement of steady state” value ([1]; 1.2 mg delta-9-THC three times daily) does the source give for `CCCCCc1cc(O)c2c(c1)OC(C)(C)[C@@H]1CCC(C)=C[C@@H]21` [delta-9-THC, delta-9-tetrahydrocannabinol] here?
Answer: apparently reached after six days of dosing

Question: What about the “accumulation during multiple dosing” value ([1]; 8-hours dosing interval) of the same compound?
Answer: no statistically significant accumulation

Question: What about the “Ratio AUC(0-8) m.d./AUC(0-8) s.d. (Accumulation factor), Mean” value ([1]; Group I, 1.2 mg) of the same compound?
Answer: 0.85

Question: What about the “Ratio AUC(0-8) m.d./AUC(0-inf) s.d. (Linearity), Mean” value ([1]; Group I, 1.2 mg) of the same compound?
Answer: 0.79

Question: What about the “Ratio AUC(0-8) m.d./AUC(0-8) s.d. (Accumulation factor), Mean” value ([1]; Group II, 3.6 mg) of the same compound?
Answer: 1.15

Question: And the “Ratio AUC(0-8) m.d./AUC(0-inf) s.d. (Linearity), Mean” value ([1]; Group II, 3.6 mg)?
Answer: 1.02

Question: What about the “dose proportionality: geometric mean ratio (3.6 mg:1.2 mg) of dose-normalized AUC(0-8) (90% confidence interval)” value ([1]; Multiple dose) of the same compound?
Answer: 1.10 (0.55-2.18)

Question: What about the “dose proportionality: geometric mean ratio (3.6 mg:1.2 mg) of dose-normalized Cmax (90% confidence interval)” value ([1]; Multiple dose) of the same compound?
Answer: 1.81 (0.52-6.24)

Question: What about the “dose proportionality: geometric mean ratio (3.6 mg:1.2 mg) of dose-normalized AUC(0-8) (90% confidence interval)” value ([1]; Single dose) of the same compound?
Answer: 0.77 (0.50-1.18)*

Question: What about the “dose proportionality: geometric mean ratio (3.6 mg:1.2 mg) of dose-normalized AUC(0-inf) (90% confidence interval)” value ([1]; Single dose) of the same compound?
Answer: 0.79 (0.51-1.23)

Question: What about the “dose proportionality: geometric mean ratio (3.6 mg:1.2 mg) of dose-normalized AUC(0-t) (90% confidence interval)” value ([1]; Single dose) of the same compound?
Answer: 0.81 (0.52-1.25)

Question: What about the “dose proportionality: geometric mean ratio (3.6 mg:1.2 mg) of dose-normalized Cmax (90% confidence interval)” value ([1]; Single dose) of the same compound?
Answer: 0.71 (0.38-1.37)

Question: And the “dose proportionality of pharmacokinetic parameters” value ([1]; after single or multiple dose administration)?
Answer: not found to deviate significantly

Question: What about the “plasma concentration-time curve, elimination profile” value ([1]; both dose levels) of the same compound?
Answer: at least a bi-phasic elimination profile

Question: What about the systemic absorption ([1]; both dose levels, inhaled) of the same compound?
Answer: rapid systemic absorption

Question: And the AUC(0-t) [1, 3]?
Answer: 5.74 ng·h/mL

Question: What about the AUC(0-t) [1, 4] of the same compound?
Answer: 6.61 ng·h/mL

Question: And the AUC(0-t) ([1]; inhaled, 1.2 mg, Geometric Mean (Range), 1.2 mg m.d., Day 12, Group I)?
Answer: 4.52 ng·h/mL

Question: What about the AUC(0-t) [1, 5] of the same compound?
Answer: 6.1 ng·h/mL

Question: What about the AUC(0-inf) [1, 4] of the same compound?
Answer: 7.14 ng·h/mL

Question: And the AUC(0-inf) [1, 5]?
Answer: 6.55 ng·h/mL

Question: What about the Cmax [1, 3] of the same compound?
Answer: 12.3 ng/mL

Question: What about the Cmax ([1]; inhaled, 1.2 mg, Arithmetic Mean (SD), 1.2 mg s.d., Day 1, plasma) of the same compound?
Answer: 24 ng/mL

Question: What about the Cmax ([1]; inhaled, 1.2 mg, Geometric Mean (Range), 1.2 mg m.d. (three times daily), Day 12, Group I) of the same compound?
Answer: 6.9 ng/mL

Question: And the Cmax ([1]; inhaled, 1.2 mg, Geometric Mean (Range), 1.2 mg s.d., Day 1, plasma)?
Answer: 19.7 ng/mL

Question: And the half-life ([1]; inhaled, 1.2 mg, terminal elimination half-life, multiple dosing)?
Answer: 24 h

Question: What about the Tmax ([1]; inhaled, 1.2 mg, tmax, Arithmetic Mean (SD), 1.2 mg m.d., Day 12, Group I) of the same compound?
Answer: 3.6 min

Question: What about the Tmax ([1]; inhaled, 1.2 mg, tmax, Arithmetic Mean (SD), 1.2 mg s.d., Day 1) of the same compound?
Answer: 2.4 min

Question: And the Tmax ([1]; inhaled, 1.2 mg, tmax, median (range), 1.2 mg m.d., Day 12, Group I)?
Answer: 3.6 min

Question: What about the Tmax ([1]; inhaled, 1.2 mg, tmax, median (range), 1.2 mg s.d., Day 1) of the same compound?
Answer: 1.8 min

Question: And the half-life ([1]; inhaled, 1.2 mg, t½, Arithmetic Mean (SD), 1.2 mg m.d., Day 12, Group I)?
Answer: 29.1 h

Question: And the half-life ([1]; inhaled, 1.2 mg, t½, Arithmetic Mean (SD), 1.2 mg s.d., Day 1)?
Answer: 4.02 h

Question: What about the half-life ([1]; inhaled, 1.2 mg, t½, Geometric Mean (Range), 1.2 mg m.d., Day 12, Group I) of the same compound?
Answer: 25.3 h

Question: What about the half-life ([1]; inhaled, 1.2 mg, t½, Geometric Mean (Range), 1.2 mg s.d., Day 1) of the same compound?
Answer: 3.39 h

Question: What about the AUC(0-t) [1, 6] of the same compound?
Answer: 15.8 ng·h/mL

Question: And the AUC(0-t) [1, 7]?
Answer: 14.7 ng·h/mL

Question: What about the AUC(0-t) ([1]; inhaled, 3.6 mg, Geometric Mean (Range), 3.6 mg m.d., Day 19, Group II) of the same compound?
Answer: 14.9 ng·h/mL

Question: What about the AUC(0-t) [1, 8] of the same compound?
Answer: 14 ng·h/mL

Question: And the AUC(0-inf) [1, 7]?
Answer: 16.3 ng·h/mL

Question: What about the AUC(0-inf) [1, 8] of the same compound?
Answer: 15.6 ng·h/mL

Question: And the Cmax [1, 6]?
Answer: 40.4 ng/mL

Question: What about the Cmax ([1]; inhaled, 3.6 mg, Arithmetic Mean (SD), 3.6 mg s.d., Day 1, plasma) of the same compound?
Answer: 44.7 ng/mL

Question: What about the Cmax ([1]; inhaled, 3.6 mg, Geometric Mean (Range), 3.6 mg m.d. (three times daily), Day 19, Group II) of the same compound?
Answer: 37.4 ng/mL

Question: And the Cmax ([1]; inhaled, 3.6 mg, Geometric Mean (Range), 3.6 mg s.d., Day 1, plasma)?
Answer: 42.5 ng/mL

Question: What about the half-life ([1]; inhaled, 3.6 mg, Terminal elimination half-lives (summary estimate), summary, best estimated after multiple dosing) of the same compound?
Answer: ~93 h

Question: What about the half-life ([1]; inhaled, 3.6 mg, terminal elimination half-life, multiple dosing) of the same compound?
Answer: 93 h

Question: And the Tmax ([1]; inhaled, 3.6 mg, tmax, Arithmetic Mean (SD), 3.6 mg m.d., Day 19, Group II)?
Answer: 2.4 min

Question: What about the Tmax ([1]; inhaled, 3.6 mg, tmax, Arithmetic Mean (SD), 3.6 mg s.d., Day 1) of the same compound?
Answer: 4.8 min

Question: And the Tmax ([1]; inhaled, 3.6 mg, tmax, median (range), 3.6 mg m.d., Day 19, Group II)?
Answer: 1.8 min

Question: What about the Tmax ([1]; inhaled, 3.6 mg, tmax, median (range), 3.6 mg s.d., Day 1) of the same compound?
Answer: 4.8 min

Question: And the half-life ([1]; inhaled, 3.6 mg, t½, Arithmetic Mean (SD), 3.6 mg m.d., Day 19, Group II)?
Answer: 94.8 h

Question: What about the half-life ([1]; inhaled, 3.6 mg, t½, Arithmetic Mean (SD), 3.6 mg s.d., Day 1) of the same compound?
Answer: 6.41 h

Question: What about the half-life ([1]; inhaled, 3.6 mg, t½, Geometric Mean (Range), 3.6 mg m.d., Day 19, Group II) of the same compound?
Answer: 92.9 h

Question: And the half-life ([1]; inhaled, 3.6 mg, t½, Geometric Mean (Range), 3.6 mg s.d., Day 1)?
Answer: 6.01 h

Question: What about the Tmax ([1]; inhaled, Tmax range, both dose levels, after single and multiple dose administration) of the same compound?
Answer: 1.8 to 4.8 min

Question: What about the “ratios of AUC(0-8) after multiple dosing versus AUC(0-inf) after single dose (linearity)” value ([1]; in vivo) of the same compound?
Answer: did not deviate clearly or significantly from unity

Question: And the “Cmax and AUC values versus dose” value ([1]; single and multiple dose administration, 1.2 and 3.6 mg)?
Answer: Dose-related increases

Question: What about the “FEV1, lowest result during the study” value (healthy subjects; one subject with below-normal pre-dose FEV1, Day 11, after six days of dosing with 1.2 mg) of the same compound?
Answer: 63%

Question: What about the “FEV1 at the follow-up visit” value (healthy subjects; same single subject, 1.2 mg) of the same compound?
Answer: 58 % of predicted

Question: What about the “part of an orally administered dose that reaches systemic circulation” value [2] of the same compound?
Answer: 10-20%
